From US11207301B2, “Sphingosine 1 phosphate receptor agonists for neuroprotection” (RECEPTOS LLC, priority 2017, dated 2021) come the findings set out here.

What all share (assay type): cell-based
Experiment [1] has as its system AKT phosphorylation in primary rat astrocytes. In words: AKT phosphorylation in primary rat astrocytes (MSD pAKT assay). Conditions: Astrocyte, 10 min, 10-minute exposure, mean of n=4. The protocol:
(§1) For the experiments using rat primary astrocytes, eight-point concentration-response curves were generated for AKT and ERK phosphorylation in primary rat astrocytes cultures in response to a 10-minute treatment with ozanimod (100 nM-46 pM), Compound 3 (10 nM-5 pM), Compound 1 (10 nM-5 pM), or FTY720-P (10 nM-5 pM). Phosphorylation of AKT and ERK was quantified using Meso Scale Discovery assay kits (MSD Mutli-Spot Phopho-AKT (Ser473) Assay Kit and MSD Multi-Spot MAP Kinase Phosphoprotein Assay Whole Cell Lysate Kit) and imaging platform. AKT and ERK phosphorylation within treated astrocytes were assessed as the mean change in signal intensity compared to DMSO vehicle and the half maximal effective concentration (EC50) was determined using non-linear regression.
(§2) Embryonic day18 (E18) rat cortices were purchased from BrainBits LLC. (Springfield, Ill.) and were cultured according to the supplier's protocol. Briefly, cortices were incubated at 37° C. for 10 minutes in activated papain solution before trituration in hibernation medium containing B27 supplement using a modified siliconized glass Pasteur pipette. The cell suspension was centrifuged at 1100×g for 1 minute at room temperature (RT). The cell pellet was then resuspended in NbAstro medium (BrainBits LLC.) and the live cell density was assessed using a cell counter. Primary cells were plated at a density of 7500 cells/cm2 in T75 tissue culture flasks coated with poly-D-lysine (PDL) in a total volume of 12 mL of NbAstro media, and incubated for 10-14 days at 37° C. 5% CO2. After 10-14 days, primary astrocytes in passage 0 (P0) that had reached confluency in the T75 flasks were detached using TrypLE detachment reagent, pelleted at 300×g, and plated into poly-d-lysine coated T225 flasks in 20 mL of NbAstro media, and incubated for another 7 days at 37° C. 5% CO2. After 7 days, primary P1 astrocytes in confluent T225 flasks were detached using TrypLE detachment reagent, pelleted at 300×g, and plated intopoly-d-lysine coated 96-well plates at 10,000 cells per well in 200 μL of NbAstro media, and incubated for 7 days at 37° C. 5% CO2. After 7 days, P2 primary astrocytes were utilized for pAKT and pERK assays.
The pAKT (phosphorylated AKT) assay was performed according to the manufacturer's protocol. Briefly, MSD pAKT plates were blocked for 1-2 hours by adding 150 μL of blocker A prepared in 1× Tris wash buffer. […] Following antibody incubation, plates were washed three times with 150 μL of 1× Tris wash buffer and 1× read buffer (150 μL/well) was added. Finally, plates were read in the MSD imager platform to assess pAKT levels.
(§3) AKT and ERK phosphorylation data were analyzed by non-linear regression (GraphPad Prism, version 6) to determine the EC50 values.

Experiment [2] deals with ERK phosphorylation in primary human astrocytes. Description: ERK phosphorylation in primary human cortical astrocytes (AlphaLISA SureFire Ultra). Conditions: Astrocyte, 10 min, 10-minute exposure, n=3-5. The protocol:
(§4) For the experiments using mouse and human primary astrocytes, ten-point concentration-response curves (90 nM-4.57 pM or 30 nM-1.52 pM) were generated for AKT and/or ERK phosphorylation in primary human and mouse cortical astrocytic cultures in response to a 10-minute treatment with ozanimod, Compound 3, Compound 1, or FTY720-P. AKT and ERK phosphorylation were quantified using AlphaLISA SureFire Ultra Assay kits and the EnVision Plate Reader. AKT and ERK phosphorylation within treated astrocytes were expressed as the mean change in signal intensity compared to the dimethyl sulfoxide (DMSO) vehicle and the half maximal effective concentration (EC50) was determined using non-linear regression.
Primary human astrocytes were purchased from ScienCell Research Laboratories, Inc. and cultured according to the supplier's protocol. The astrocytes were obtained from the human cerebral cortex, cryopreserved at passage one, and delivered frozen. The frozen vials of cells were gently thawed in a 37° C. water bath. Once the contents of the vial were completely thawed, the cell solution was dispensed into a poly-L-lysine (PLL) coated T75 tissue culture flask with 16 mL of human Astrocyte Media, (ScienCell Research Laboratories, Inc.) and incubated at 37° C. 5% CO2. Once the human astrocytes had reached confluency in the T75 flask, they were detached using trypsin/EDTA 0.25%, pelleted at 300×g, split into two PLL coated T225 tissue culture flasks in 40 mL of astrocyte media, and incubated at 37° C. 5% CO2. Once the astrocytes reached confluency in the T225 flasks, they were detached using trypsin/EDTA 0.25% solution, pelleted at 300×g, plated into poly-D-lysine (PDL) coated 96-well plates at a density of 10,000 cells per well in 200 μL human Astrocyte Media, and incubated at 37° C. 5% CO2. Half of the media was replenished every 3-4 days. After 5-7 days of incubation, the P2 human astrocyte plates were utilized for the pERK and pAKT assays.
Cell lysis and detection of pERK were performed according to the PerkinElmer AlphaLISA SureFire Ultra p-ERK1/2 (Thr202/TYR 204) assay protocol. Astrocytes were lysed in the 96-well plate following a 10 minute incubation with compounds with shaking at RT. The astrocytic lysates (10 μL/well) were transferred into a 384-well OptiPlate. As specified by the assay protocol, an acceptor bead mix and a donor bead mix (5 μL/well for each) were added to the plate under subdued light. Plates were sealed with adhesive plate seals and incubated in the dark for 2 hours at RT. The plates were read on the EnVision Plate Reader to assess the pERK levels.
(§5) The AKT and ERK phosphorylation data, collected by a Perkin Elmer EnVision Microplate Reader, was analyzed by non-linear regression (GraphPad Prism, version 7.03) to determine the EC50 values.
In general terms: Alpha assays give light when donor and acceptor beads are brought close together.

The subject of experiment [3] is ERK phosphorylation in primary rat astrocytes. Description: ERK phosphorylation in primary rat astrocytes (MSD pERK assay). The settings on record: Astrocyte, 10 min, 10-minute exposure, mean of n=3. The protocol: as §1, §2
The pERK (phosphorylated ERK)/pMAPkinase assay was performed according to the manufacturer's protocol. Briefly, MSD pERK/pMAPkinase plates were blocked for 1-2 hours by adding 150 μL of blocker A prepared in 1× Tris wash buffer. […] Following antibody incubation, plates were washed three times with 150 μL of 1× Tris wash buffer and 1× read buffer (150 μL/well) was added. Finally, the plates were read in the MSD imager platform to assess the pERK levels.
as §3

Experiment [4] relates to AKT phosphorylation in primary mouse astrocytes. In words: AKT phosphorylation in primary mouse cortical astrocytes (AlphaLISA SureFire Ultra). The settings on record: Astrocyte, 10 min, 10-minute exposure, mean of n=3. The protocol: as §4
Timed pregnant (E16) C57BL/6J female mice arrive to the test facility on a weekly basis and were housed and cared for according to appropriate protocols for this model. Primary mouse cortical astrocytes are harvested from P0-P2 pups. The newly born animals were deeply anesthetized on ice, decapitated, and the brains were rapidly removed and stored in ice-cold NbAstro media (BrainBits, LLC). Cells were dissociated from freshly dissected cortices by mechanical disruption in the presence of trypsin and DNase. Cells were put into a PDL coated T75 tissue culture flask containing 16 mL NbAstro Media and incubated at 37° C. 5% CO2. Once the mouse astrocytes had reached confluency in the T75 flask, they were detached using TripLE detachment reagent, pelleted at 300×g, expanded into two T225 PDL coated tissue culture flasks containing 40 mL of NbAstro and incubated at 37° C. 5% CO2. Once the astrocytes reached confluency in the T225 flasks they were detached using TrypLE detachment reagent, pelleted at 300×g, plated into PDL coated 96-well plates at a density of 10,000 cells per well in 200 μL NbAstro and incubated at 37° C. 5% CO2. Half of the media was replenished every 3-4 days. After 5-7 days of incubation, the P2 mouse astrocyte plates were utilized for the pERK and pAKT assays.
Cell lysis and detection of pAKT were performed according to the PerkinElmer AlphaLISA SureFire Ultra pAKT1/2/3 ([…]) assay protocol. Astrocytes were lysed in the 96-well plate following a 10 minute incubation with compounds with shaking at room temperature (RT). The astrocytic lysates (10 μL/well) were transferred into a 384-well OptiPlate. As specified by the assay protocol, an acceptor bead mix and a donor bead mix (5 μL/well for each) were added to the plate under subdued light. […] The plates were read on the EnVision Plate Reader to assess the pAKT levels.
as §5

The EC50 is the midpoint of the concentration-response curve. High values mean a less potent agent, low ones a more potent agent. Take `CC(C)Oc1ccc(-c2nc(-c3cccc4c3CCC4NCC(=O)O)no2)cc1C#N` (stereo not shown) [Compound 3]: the EC50 in experiment [1] amounted to 0.23 nM; in experiment [2] it was 0.5 nM; in experiment [3], 0.11 nM; in experiment [4] it was 0.13 nM.
